Test results: patent US9145392B2, “Imidazole amines as modulators of kinase activity” (Merck Patent GmbH, priority 2011, dated 2015)

Experiments:
P70S6K (T412E mutant) = P70S6K (T412E mutant) (Homo sapiens (Human), UniProt P23443, T412E); experiment: P70S6K enzyme assay; type: biochemical; conditions: read-out: IC50 p70S6K
Protocol: P70S6K inhibitor compounds are diluted and plated in 96 well plates. […] The reaction is incubated for 90 min at 25° C., before the addition of 10 mM EDTA to stop the reaction. The proportion of substrate and product (phosphorylated) peptide is analysed on a Caliper Life Sciences Lab Chip 3000, using a pressure of −1.4 psi, and upstream and downstream voltages of −3000 and −700 respectively. Product peaks are resolved before substrate peaks on the resulting chromatograms.

His-AKT (Full Length) = His-AKT (Full Length) (Homo sapiens (Human), UniProt P31749); experiment: AKT enzyme assay; type: biochemical; conditions: read-out: IC50 AKT
Protocol: A TTP Mosquito liquid handling instrument is used to place 125n1 of the appropriate concentration of inhibitor in 100% DMSO (for a dose response curve calculation) into each well of a 384-well plate.
The reaction is incubated for 90 min at 25 C, and then stopped by the addition of 70 μl of Stop buffer (100 mM HEPES pH 7.5, 0.015% Brij-35, 10 mM EDTA (Sigma, E7889)).
The plate is read on a Caliper LC 3000 in an Off-Chip mobility shift assay format, using the following parameters for a 12-sipper chip: screening pressure −2.3 psi, upstream voltage −500, and downstream voltage −3000. These conditions cause unphosphorylated substrate and phosphorylated product peptide to resolve as separate peaks allowing direct measurement of percentage of conversion of substrate to product. The percent conversion can be plotted against concentration of inhibitor to produce a sigmoidal dose response curve, from which an IC50 can be calculated.

Sequence of P70S6K (T412E mutant) (P23443 whole entry T412E): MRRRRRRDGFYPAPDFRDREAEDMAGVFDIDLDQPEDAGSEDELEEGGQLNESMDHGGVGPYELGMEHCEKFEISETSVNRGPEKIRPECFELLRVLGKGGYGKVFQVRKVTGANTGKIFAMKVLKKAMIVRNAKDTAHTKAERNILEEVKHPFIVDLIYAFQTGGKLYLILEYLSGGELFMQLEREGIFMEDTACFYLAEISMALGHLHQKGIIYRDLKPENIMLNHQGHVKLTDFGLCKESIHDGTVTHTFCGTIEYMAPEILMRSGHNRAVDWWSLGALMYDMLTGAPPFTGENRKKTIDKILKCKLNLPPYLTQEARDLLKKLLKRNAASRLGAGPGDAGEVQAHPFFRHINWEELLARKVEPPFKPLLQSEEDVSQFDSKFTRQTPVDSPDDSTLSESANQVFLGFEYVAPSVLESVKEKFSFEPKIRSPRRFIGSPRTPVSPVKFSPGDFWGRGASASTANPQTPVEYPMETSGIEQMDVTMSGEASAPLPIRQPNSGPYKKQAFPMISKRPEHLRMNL
Sequence of His-AKT (Full Length) (P31749 whole entry): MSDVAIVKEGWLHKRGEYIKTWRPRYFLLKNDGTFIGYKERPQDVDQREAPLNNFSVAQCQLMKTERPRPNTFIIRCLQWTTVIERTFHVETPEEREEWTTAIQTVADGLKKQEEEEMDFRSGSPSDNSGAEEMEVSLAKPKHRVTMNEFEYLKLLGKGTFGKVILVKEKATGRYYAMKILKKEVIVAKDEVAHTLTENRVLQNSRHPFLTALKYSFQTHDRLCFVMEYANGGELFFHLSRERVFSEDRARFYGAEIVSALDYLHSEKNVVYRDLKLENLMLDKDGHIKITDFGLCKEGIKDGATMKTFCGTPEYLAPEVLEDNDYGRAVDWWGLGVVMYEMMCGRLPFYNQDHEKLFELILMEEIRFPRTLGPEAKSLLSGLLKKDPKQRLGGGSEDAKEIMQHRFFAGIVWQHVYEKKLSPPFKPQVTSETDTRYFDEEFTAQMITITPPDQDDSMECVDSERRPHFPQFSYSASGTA

SMILES: Cn1cc(-c2ccc(F)c(C(F)(F)F)c2)nc1C1CCN(c2ncnc(N)c2Br)CC1 [Compound 1, 5-Bromo-6-{4-[4-(4-fluoro-3-trifluoromethyl-phenyl)-1-methyl-1H-imidazol-2-yl]-piperidin-1-yl}-pyrimidin-4-ylamine]
- IC50 (P70S6K (T412E mutant)): 2.1 nM
- IC50 (His-AKT (Full Length)): 66 nM

SMILES: Nc1ncnc(N2CCC(c3nc(-c4cccc(C(F)(F)F)c4)c[nH]3)CC2)c1Br [Compound 3, 5-Bromo-6-{4-[4-(3-trifluoromethyl-phenyl)-1H-imidazol-2-yl]-piperidin-1-yl}-pyrimidin-4-ylamine]
- IC50 (P70S6K (T412E mutant)): 6.2 nM
- IC50 (His-AKT (Full Length)): 1700 nM

SMILES: FC(F)(F)c1cccc(-c2c[nH]c(C3CCN(c4ncncc4Br)CC3)n2)c1 [Compound 4, 5-Bromo-4-{4-[4-(3-trifluoromethyl-phenyl)-1H-imidazol-2-yl]-piperidin-1-yl}-pyrimidine]
- IC50 (P70S6K (T412E mutant)): 31.9 nM
- IC50 (His-AKT (Full Length)): 6100 nM

SMILES: Cn1cc(-c2ccc(F)c(C(F)(F)F)c2)nc1C1CCN(c2ncnc(N)c2C=O)CC1 [Compound 6, 4-Amino-6-{4-[4-(4-fluoro-3-trifluoromethyl-phenyl)-1-methyl-1H-imidazol-2-yl]-piperidin-1-yl}-pyrimidine-5-carbaldehyde]
- IC50 (P70S6K (T412E mutant)): 0.6 nM
- IC50 (His-AKT (Full Length)): 160 nM

SMILES: Cn1cc(-c2ccc(F)c(C(F)(F)F)c2)nc1C1CCN(c2ncnc(N)c2C#N)CC1 [Compound 7, 4-Amino-6-{4-[4-(4-fluoro-3-trifluoromethyl-phenyl)-1-methyl-1H-imidazol-2-yl]-piperidin-1-yl}-pyrimidine-5-carbonitrile]
- IC50 (P70S6K (T412E mutant)): 1.5 nM
- IC50 (His-AKT (Full Length)): 110 nM

SMILES: CN(C)CCn1cc(-c2ccc(F)c(C(F)(F)F)c2)nc1C1CCN(c2ncnc(N)c2C#N)CC1 [Compound 8, 4-Amino-6-{4-[1-(2-dimethylamino-ethyl)-4-(4-fluoro-3-trifluoromethyl-phenyl)-1H-imidazol-2-yl]-piperidin-1-yl}-pyrimidine-5-carbonitrile]
- IC50 (P70S6K (T412E mutant)): 1.8 nM
- IC50 (His-AKT (Full Length)): 9.1 nM

SMILES: COc1c(N)ncnc1N1CCC(c2nc(-c3ccc(F)c(C(F)(F)F)c3)cn2C)CC1 [Compound 9, 6-{4-[4-(4-Fluoro-3-trifluoromethyl-phenyl)-1-methyl-1H-imidazol-2-yl]-piperidin-1-yl}-5-methoxy-pyrimidin-4-ylamine]
- IC50 (P70S6K (T412E mutant)): 2.1 nM
- IC50 (His-AKT (Full Length)): 440 nM

SMILES: Cn1cc(-c2ccc(F)c(C(F)(F)F)c2)nc1C1CCN(c2ncnc(N)c2-c2ccc(F)cc2)CC1 [Compound 10, 5-(4-Fluoro-phenyl)-6-{4-[4-(4-fluoro-3-trifluoromethyl-phenyl)-1-methyl-1H-imidazol-2-yl]-piperidin-1-yl}-pyrimidin-4-ylamine]
- IC50 (P70S6K (T412E mutant)): 3.4 nM
- IC50 (His-AKT (Full Length)): 2200 nM

SMILES: COc1ccc(-c2c(N)ncnc2N2CCC(c3nc(-c4ccc(F)c(C(F)(F)F)c4)cn3C)CC2)cc1 [Compound 11, 6-{4-[4-(4-Fluoro-3-trifluoromethyl-phenyl)-1-methyl-1H-imidazol-2-yl]-piperidin-1-yl}-5-(4-methoxy-phenyl)-pyrimidin-4-ylamine]
- IC50 (P70S6K (T412E mutant)): 4.7 nM
- IC50 (His-AKT (Full Length)): 520 nM

SMILES: Cc1ccc(-c2c(N)ncnc2N2CCC(c3nc(-c4ccc(F)c(C(F)(F)F)c4)cn3C)CC2)cc1 [Compound 13, 6-{4-[4-(4-Fluoro-3-trifluoromethyl-phenyl)-1-methyl-1H-imidazol-2-yl]-piperidin-1-yl}-5-p-tolyl-pyrimidin-4-ylamine]
- IC50 (P70S6K (T412E mutant)): 7.3 nM
- IC50 (His-AKT (Full Length)): 8300 nM

SMILES: Cn1cc(-c2ccc(F)c(C(F)(F)F)c2)nc1C1CCN(c2ncnc(N)c2-c2ccc(CO)cc2)CC1 [Compound 14, [4-(4-Amino-6-{4-[4-(4-fluoro-3-trifluoromethyl-phenyl)-1-methyl-1H-imidazol-2-yl]-piperidin-1-yl}-pyrimidin-5-yl)-phenyl]-methanol]
- IC50 (P70S6K (T412E mutant)): 1.9 nM
- IC50 (His-AKT (Full Length)): 250 nM

SMILES: Cn1cc(-c2ccc(F)c(C(F)(F)F)c2)nc1C1CCN(c2ncnc(N)c2-c2cccc(C#N)c2)CC1 [Compound 15, 3-(4-Amino-6-{4-[4-(4-fluoro-3-trifluoromethyl-phenyl)-1-methyl-1H-imidazol-2-yl]-piperidin-1-yl}-pyrimidin-5-yl)-benzonitrile]
- IC50 (P70S6K (T412E mutant)): 11 nM
- IC50 (His-AKT (Full Length)): 150 nM

SMILES: Cn1cc(-c2ccc(F)c(C(F)(F)F)c2)nc1C1CCN(c2ncnc(N)c2-c2ccc(C#N)cc2)CC1 [Compound 17, 4-(4-Amino-6-{4-[4-(4-fluoro-3-trifluoromethyl-phenyl)-1-methyl-1H-imidazol-2-yl]-piperidin-1-yl}-pyrimidin-5-yl)-benzonitrile]
- IC50 (P70S6K (T412E mutant)): 2.7 nM
- IC50 (His-AKT (Full Length)): 2.7 nM

SMILES: Cc1ccc(-c2c(N)ncnc2N2CCC(c3nc(-c4ccc(F)c(C(F)(F)F)c4)cn3C)CC2)cn1 [Compound 19, 6-{4-[4-(4-Fluoro-3-trifluoromethyl-phenyl)-1-methyl-1H-imidazol-2-yl]-piperidin-1-yl}-5-(6-methyl-pyridin-3-yl)-pyrimidin-4-ylamine]
- IC50 (P70S6K (T412E mutant)): 2.2 nM
- IC50 (His-AKT (Full Length)): 1700 nM

SMILES: Cc1ccc(-c2c(N)ncnc2N2CCC(c3nc(-c4ccc(F)c(C(F)(F)F)c4)cn3C)CC2)s1 [Compound 20, 6-{4-[4-(4-Fluoro-3-trifluoromethyl-phenyl)-1-methyl-1H-imidazol-2-yl]-piperidin-1-yl}-5-(5-methyl-thiophen-2-yl)-pyrimidin-4-ylamine]
- IC50 (P70S6K (T412E mutant)): 7.1 nM
- IC50 (His-AKT (Full Length)): 2700 nM

SMILES: Cn1cc(-c2ccc(F)c(C(F)(F)F)c2)nc1C1CCN(c2ncnc(N)c2CO)CC1 [Compound 36, (4-Amino-6-{4-[4-(4-fluoro-3-trifluoromethyl-phenyl)-1-methyl-1H-imidazol-2-yl]-piperidin-1-yl}-pyrimidin-5-yl)-methanol]
- IC50 (P70S6K (T412E mutant)): 2.2 nM
- IC50 (His-AKT (Full Length)): 1100 nM

SMILES: Cn1cc(-c2ccc(F)c(C(F)(F)F)c2)nc1C1CCN(c2ncnc(N)c2C(N)=O)CC1 [Compound 37, 4-Amino-6-{4-[4-(4-fluoro-3-trifluoromethyl-phenyl)-1-methyl-1H-imidazol-2-yl]-piperidin-1-yl}-pyrimidine-5-carboxamide]
- IC50 (P70S6K (T412E mutant)): 2.6 nM
- IC50 (His-AKT (Full Length)): 1600 nM

SMILES: CN(C)CCn1cc(-c2ccc(F)c(C(F)(F)F)c2)nc1C1CCN(c2ncnc(N)c2C(N)=O)CC1 [Compound 38, 4-Amino-6-{4-[1-(2-dimethylamino-ethyl)-4-(4-fluoro-3-trifluoromethyl-phenyl)-1H-imidazol-2-yl]-piperidin-1-yl}-pyrimidine-5-carboxylic acid amide]
- IC50 (P70S6K (T412E mutant)): 3.5 nM
- IC50 (His-AKT (Full Length)): 84 nM

SMILES: Cn1cc(-c2ccc(F)c(C(F)(F)F)c2)nc1C1CCN(c2ncnc(N)c2-c2ccncc2)CC1 [Compound 39, 6-{4-[4-(4-Fluoro-3-trifluoromethyl-phenyl)-1-methyl-1H-imidazol-2-yl]-piperidin-1-yl}-5-pyridin-4-yl-pyrimidin-4-ylamine]
- IC50 (P70S6K (T412E mutant)): 1.4 nM
- IC50 (His-AKT (Full Length)): 860 nM

SMILES: Cn1cc(-c2ccc(F)c(C(F)(F)F)c2)nc1C1CCN(c2ncnc(N)c2-c2ccc(N)nc2)CC1 [Compound 40, 5-(6-Amino-pyridin-3-yl)-6-{4-[4-(4-fluoro-3-trifluoromethyl-phenyl)-1-methyl-1H-imidazol-2-yl]-piperidin-1-yl}-pyrimidin-4-ylamine]
- IC50 (P70S6K (T412E mutant)): 2.3 nM
- IC50 (His-AKT (Full Length)): 2700 nM

SMILES: Cn1cc(-c2ccc(F)c(C(F)(F)F)c2)nc1C1CCN(c2ncncc2Br)CC1 [Compound 41, 5-Bromo-4-{4-[4-(4-fluoro-3-trifluoromethyl-phenyl)-1-methyl-1H-imidazol-2-yl]-piperidin-1-yl}-pyrimidine]
- IC50 (P70S6K (T412E mutant)): 3 nM
- IC50 (His-AKT (Full Length)): 1400 nM
